# Source: US7915291B2, “Hepatitis C virus inhibitors” (Bristol-Myers Squibb Company, priority 2002, dated 2011)
# Read-outs that look alike come from different tables or passages of the source.
# What was measured:
# [1] = molecular target: HCV NS3/4A protease complex, BMS strain (UniProt P27958, C1454S/C1711G, species not given/STRAIN_BMS); assay: Recombinant HCV NS3/4A protease complex FRET peptide assay (BMS strain); type: biochemical, HCV genotype 1a; conditions: NS3/4A BMS strain; read-out: IC50 range
# Description: Recombinant HCV NS3/4A Protease Complex FRET Peptide Assay
# The purpose of this in vitro assay was to measure the inhibition of HCV NS3 protease complexes, derived from the BMS, H77C or J416S strains, as described below, by compounds of the present invention.
# Serum from an HCV-infected patient was obtained from Dr. T. Wright, San Francisco Hospital. An engineered full-length cDNA (compliment deoxyribonucleic acid) template of the HCV genome (BMS strain) was constructed from DNA fragments obtained by reverse transcription-PCR(RT-PCR) of serum RNA (ribonucleic acid) and using primers selected on the basis of homology between other genotype 1a strains.
# The BMS, H77C and J4L6S strains were used for production of recombinant NS3/4A protease complexes. […] Briefly, a three-lysine solubilizing tail was added at the 3′-end of the NS4A coding region. […] Briefly, NS3/4A expression was induced with 0.5 mM Isopropyl β-D-1-thiogalactopyranoside (IPTG) for 22 hr at 20° C. […] The crude protein extract was loaded on a Nickel—Nitrilotriacetic acid (Ni-NTA) column pre-equilibrated with buffer B (25 mM HEPES, pH8.0, 20% glycerol, 500 mM NaCl, 0.5% Triton-X100, 15 mM imidazole, 5 mM βME). The sample was loaded at a flow rate of 1 mL/min. The column was washed with 15 column volumes of buffer C (same as buffer B except with 0.2% Triton-X100). The protein was eluted with 5 column volumes of buffer D (same as buffer C except with 200 mM Imidazole).
# NS3/4A protease complex-containing fractions were pooled and loaded on a desalting column Superdex-S200 pre-equilibrated with buffer D (25 mM HEPES, pH7.5, 20% glycerol, 300 mM NaCl, 0.2% Triton-X100, 10 mM βME). Sample was loaded at a flow rate of 1 mL/min. NS3/4A protease complex-containing fractions were pooled and concentrated to approximately 0.5 mg/ml.
# The enzyme was stored at −80° C., thawed on ice and diluted prior to use in assay buffer. […] The sequence of this peptide is loosely based on the NS4A/NS4B natural cleavage site except there is an ester linkage rather than an amide bond at the cleavage site. The peptide substrate was incubated with one of the three recombinant NS3/4A complexes, in the absence or presence of a compound of the present invention, and the formation of fluorescent reaction product was followed in real time using a Cytofluor Series 4000.
# The reagents were as follow: HEPES and Glycerol (Ultrapure) were obtained from GIBCO-BRL. Dimethyl Sulfoxide (DMSO) was obtained from Sigma. β-Mercaptoethanol was obtained from Bio Rad.
# Substrate: 2 μM final concentration (from a 2 mM stock solution in DMSO stored at −20° C.). HCV NS3/4A type 1a (1b), 2-3 nM final concentration (from a 5 μM stock solution in 25 mM HEPES, pH7.5, 20% glycerol, 300 mM NaCl, 0.2% Triton-X100, 10 mM βME).
# The assay was performed in a 96-well polystyrene black plate from Falcon. Each well contained 25 μl NS3/4A protease complex in assay buffer, 50 μof a compound of the present invention in 10% DMSO/assay buffer and 25 μl substrate in assay buffer. A control (no compound) was also prepared on the same assay plate. The enzyme complex was mixed with compound or control solution for 1 min before initiating the enzymatic reaction by the addition of substrate. The assay plate was read immediately using the Cytofluor Series 4000 (Perspective Biosystems). The instrument was set to read an […] at 25° C. Reactions were generally followed for approximately 15 minutes.
# The percent inhibition was calculated with the following equation: 100−[(δFinh/δFcon)×100] where δF is the change in fluorescence over the linear range of the curve.
# [2] = test system: HCV replicon in Huh7 cells; assay: HCV replicon cell-based assay; set-up: species or system HCV strain 1B; conditions: HCV replicon, Huh7 cells, read-out: EC50 range
# Description: HCV Replicon Cell-based Assay
# This system enabled us to evaluate the effects of our HCV Protease compounds on HCV RNA replication. Briefly, using the HCV strain 1B sequence described in the Lohmann paper (Assession number:AJ238799), an HCV cDNA was generated encoding the 5′ internal ribosome entry site (IRES), the neomycin resistance gene, the EMCV (encephalomyocarditis virus)-IRES and the HCV nonstructural proteins, NS3-NS5B, and 3′ non-translated region (NTR). In vitro transcripts of the cDNA were transfected into the human hepatoma cell line, Huh7. […] Resulting cell lines were characterized for positive and negative strand RNA production and protein production over time.
# Huh7 cells, constitutively expressing the HCV replicon, were grown in Dulbecco's Modified Eagle Media (DMEM) containing 10% Fetal calf serum (FCS) and 1 mg/ml G418 (Gibco-BRL). Cells were seeded the night before (1.5×10^4 cells/well) in 96-well tissue-culture sterile plates. Compound and no compound controls were prepared in DMEM containing 4% FCS, 1:100 Penicillin/Streptomysin, 1:100 L-glutamine and 5% DMSO in the dilution plate (0.5% DMSO final concentration in the assay). Compound/DMSO mixes were added to the cells and incubated for 4 days at 37° C. After 4 days, plates were rinsed thoroughly with Phosphate-Buffered Saline (PBS) (3 times 150 μl). The cells were lysed with 25 μl of a lysis assay reagent containing the FRET peptide (RET S1, as described for the in vitro enzyme assay). The lysis assay reagent was made from 5× cell Luciferase cell culture lysis reagent(Promega #E153A) diluted to 1× with distilled water, NaCl added to 150 mM final, the FRET peptide diluted to 10 μM final from a 2 mM stock in 100% DMSO. The plate was then placed into the Cytofluor 4000 instrument which had been set to 340 nm excitation/490 emission, automatic mode for 21 cycles and the plate read in a kinetic mode. EC50 determinations were carried out as described for the IC50 determinations.
# Cells were lyzed using the Rneasy kit (Qiagen). […] All primers were designed with ABI Prism 7700 software and obtained from Biosearch Technologies, Novato, Calif. Samples containing known concentrations of HCV RNA transcript were run as standards. Using the following cycling protocol (50° C., 30 min; 95° C., 5 min; 40 cycles of 95° C., 15 sec, 60° C., 1 min), HCV RNA expression was quantitated as described in the Perkin Elmer manual using the ABI Prism 7700 Sequence Detector.
Structure (SMILES),IC50 [1] [nM],"EC50 ([2]; Hepatitis C virus, Huh-7) [nM]",EC50 [2] [nM]
C=CC1CC1(NC(=O)C1CC(Oc2nc(-c3ccccc3)nc3ccc(OC)cc23)CN1C(=O)[C@@H](NC(=O)OC(C)(C)C)C(C)(C)C)C(=O)NS(=O)(=O)C(C)C (mixture of isomers) [Compound 45],100 to 1000,1000 to 10000,
C=CC1CC1(NC(=O)C1CC(Oc2nc(C3CC3)nc3cc(OC)c(OC)cc23)CN1C(=O)[C@@H](NC(=O)OC(C)(C)C)C(C)(C)C)C(=O)NS(=O)(=O)C(C)C (mixture of isomers) [Compound 46],100 to 1000,1000 to 10000,
"C=C[C@@H]1C[C@]1(NC(=O)[C@@H]1C[C@@H](Oc2nccc3cc(OC)ccc23)CN1C(=O)C(NC(=O)OC(C)(C)C)C(C)c1ccccc1)C(=O)NS(=O)(=O)C1CC1 (single isomer, unassigned) [Compound 135]",< 100,100 to 1000,
"C=C[C@@H]1C[C@]1(NC(=O)[C@@H]1C[C@@H](Oc2nccc3cc(OC)ccc23)CN1C(=O)C(NC(=O)OC(C)(C)C)C(C)c1ccccc1)C(=O)NS(=O)(=O)C1CC1 (single isomer, unassigned) [Compound 136]",< 100,,100 to 1000
C=C[C@@H]1C[C@]1(NC(=O)[C@@H]1C[C@@H](Oc2cc(-c3ccccc3)nc3c(C)noc23)CN1C(=O)[C@@H](NC(=O)OC(C)(C)C)C(C)(C)C)C(=O)NS(=O)(=O)C1CC1 [Compound 1],< 100,< 100,
C=C[C@@H]1C[C@]1(NC(=O)[C@@H]1C[C@@H](Oc2cc(-c3ccccc3)nc3nc(C)ccc23)CN1C(=O)[C@@H](NC(=O)OC(C)(C)C)C(C)(C)C)C(=O)NS(=O)(=O)C1CC1 [Compound 2],< 100,100 to 1000,
C=C[C@@H]1C[C@]1(NC(=O)[C@@H]1C[C@@H](Oc2cc(-c3ccc(OC)cc3)nc3c(C)noc23)CN1C(=O)[C@@H](NC(=O)OC(C)(C)C)C(C)(C)C)C(=O)NS(=O)(=O)C1CC1 [Compound 3],< 100,< 100,
C=C[C@@H]1C[C@]1(NC(=O)[C@@H]1C[C@@H](Oc2cc(-c3ccc(F)cc3)nc3c(C)noc23)CN1C(=O)[C@@H](NC(=O)OC(C)(C)C)C(C)(C)C)C(=O)NS(=O)(=O)C1CC1 [Compound 4],< 100,< 100,
C=C[C@@H]1C[C@]1(NC(=O)[C@@H]1C[C@@H](Oc2cc(-c3cccc(OC)c3)nc3c(C)noc23)CN1C(=O)[C@@H](NC(=O)OC(C)(C)C)C(C)(C)C)C(=O)NS(=O)(=O)C1CC1 [Compound 5],< 100,< 100,
C=C[C@@H]1C[C@]1(NC(=O)[C@@H]1C[C@@H](Oc2cc(-c3ccccc3OC)nc3c(C)noc23)CN1C(=O)[C@@H](NC(=O)OC(C)(C)C)C(C)(C)C)C(=O)NS(=O)(=O)C1CC1 [Compound 6],100 to 1000,100 to 1000,
C=C[C@@H]1C[C@]1(NC(=O)[C@@H]1C[C@@H](Oc2ccc3ccccc3n2)CN1C(=O)[C@@H](NC(=O)OC(C)(C)C)C(C)(C)C)C(=O)NS(=O)(=O)C1CC1 [Compound 7],< 100,100 to 1000,
C=CC1CC1(NC(=O)[C@@H]1C[C@@H](Oc2cc(C(F)(F)F)nc3nc(C)ccc23)CN1C(=O)[C@@H](NC(=O)OC(C)(C)C)C(C)(C)C)C(=O)NS(=O)(=O)C1CC1 (some centres unmarked) [Compound 8],100 to 1000,1000 to 10000,
C=C[C@@H]1CC1(NC(=O)[C@@H]1CC(Oc2nccc3cc(OC)ccc23)CN1C(=O)[C@@H](NC(=O)NC(C)(C)C)C(C)(C)C)C(=O)NS(=O)(=O)C1CC1 (some centres unmarked) [Compound 74],,< 100,
C=C[C@@H]1C[C@]1(NC(=O)[C@@H]1C[C@@H](Oc2nccc3cc(OC)ccc23)CN1C(=O)[C@@H](NC(=O)N[C@H](C(=O)OC)C(C)(C)C)C(C)(C)C)C(=O)NS(=O)(=O)C1CC1 [Compound 146],,< 100,
C=C[C@@H]1C[C@]1(NC(=O)[C@@H]1C[C@@H](Oc2nccc3cc(OC)ccc23)CN1C(=O)[C@@H](NC(=O)N[C@@H](C)COC)C(C)(C)C)C(=O)NS(=O)(=O)C1CC1 [Compound 153],,< 100,
C=C[C@@H]1C[C@]1(NC(=O)[C@@H]1C[C@@H](Oc2ncc(OC)c3ccc(Cl)cc23)CN1C(=O)[C@@H](NC(=O)OC(C)(C)C)C(C)(C)C)C(=O)NS(=O)(=O)C1CC1 [Compound 277],,< 100,
C=CC1C[C@]1(NC(=O)[C@@H]1C[C@@H](COc2cccc(-c3ccccc3)n2)CN1C(=O)[C@@H](NC(=O)OC)C(C)(C)C)C(=O)NS(=O)(=O)C1CC1 (some centres unmarked) [Compound 354],1000 to 10000,,
C=C[C@@H]1C[C@]1(NC(=O)[C@@H]1C[C@@H](Oc2ccnc3cc(OC)ccc23)CN1C(=O)[C@@H](NC(=O)OC(C)(C)C)C(C)(C)C)C(=O)NS(=O)(=O)C1CC1 [Compound 376],,< 100,
C=CC1CC1(NC(=O)[C@@H]1C[C@@H](Oc2cncc(Br)c2)CN1C(=O)[C@@H](NC(=O)OC(C)(C)C)C(C)(C)C)C(=O)NS(=O)(=O)C1CC1 (some centres unmarked) [Compound 423],100 to 1000,,
C=CC1CC1(NC(=O)[C@@H]1C[C@@H](Sc2cccc3ccccc23)CN1C(=O)[C@@H](NC(=O)OC(C)(C)C)C(C)(C)C)C(=O)NS(C)(=O)=O (some centres unmarked) [Compound 451],1000 to 10000,,
C=CC1CC1(NC(=O)[C@@H]1C[C@@H](Sc2ccc3ccccc3c2)CN1C(=O)[C@@H](NC(=O)OC(C)(C)C)C(C)(C)C)C(=O)NS(C)(=O)=O (some centres unmarked) [Compound 452],1000 to 10000,,
C=C[C@@H]1C[C@]1(NC(=O)[C@@H]1C[C@@H](Oc2cccc3ccccc23)CN1C(=O)[C@@H](NC(=O)OC(C)(C)C)C(C)(C)C)C(=O)NS(C)(=O)=O [Compound 470],100 to 1000,,
C=C[C@H]1C[C@@]1(NC(=O)[C@@H]1C[C@@H](Oc2cccc3ccccc23)CN1C(=O)[C@@H](NC(=O)OC(C)(C)C)C(C)(C)C)C(=O)NS(C)(=O)=O [Compound 471],1000 to 10000,,
